The results in this text go back to ChEMBL document CHEMBL1136002 (J Med Chem, 2002).

In general, Ki refers to a dissociation constant, usually derived from enzyme kinetics or from competition with a known ligand. Read a high Ki as lower affinity. One may read the IC50 as the concentration that inhibits the measured activity by half.

Test [1] deals with T1, Sodium-dependent serotonin transporter (Homo sapiens, UniProt P31645). The experiment in a line: Binding affinity for serotonin transporter (SERT) using [125I]RTI-55.
Target sequence in this assay (P31645 whole entry): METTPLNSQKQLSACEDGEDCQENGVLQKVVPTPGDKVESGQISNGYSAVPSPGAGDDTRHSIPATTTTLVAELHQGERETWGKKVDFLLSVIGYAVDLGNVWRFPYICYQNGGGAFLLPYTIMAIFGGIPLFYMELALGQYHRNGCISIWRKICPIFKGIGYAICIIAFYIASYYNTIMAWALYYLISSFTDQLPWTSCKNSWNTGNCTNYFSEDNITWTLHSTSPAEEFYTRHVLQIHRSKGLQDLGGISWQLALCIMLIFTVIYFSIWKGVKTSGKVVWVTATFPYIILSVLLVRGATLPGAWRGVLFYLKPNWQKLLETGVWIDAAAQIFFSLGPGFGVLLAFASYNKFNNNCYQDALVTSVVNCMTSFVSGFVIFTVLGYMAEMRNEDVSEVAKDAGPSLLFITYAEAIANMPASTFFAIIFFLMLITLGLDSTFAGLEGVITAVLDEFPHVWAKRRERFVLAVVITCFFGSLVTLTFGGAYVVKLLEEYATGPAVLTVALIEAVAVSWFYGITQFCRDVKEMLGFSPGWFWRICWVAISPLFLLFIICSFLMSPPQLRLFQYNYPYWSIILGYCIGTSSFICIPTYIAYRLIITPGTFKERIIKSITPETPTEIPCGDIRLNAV
Test [2] addresses T1, Sodium-dependent serotonin transporter. Kind of test: Ratio of Ki value towards Serotonin transporter (SERT) to that of Dopamine transporter (DAT).
Target sequence in this assay (P31645 whole entry, looked up): as the sequence (P31645 whole entry) above
Test [3] has the same target. Kind of test: Compound was tested for the inhibition of serotonin (5-HT) reuptake. It is filed as functional.
Target sequence in this assay (P31645 whole entry): as above
Test [4] concerns the target Sodium-dependent noradrenaline transporter (Homo sapiens, UniProt P23975). The experiment in a line: Compound was tested for the inhibition of norepinephrine (NE) reuptake. It is filed as functional.
Test [5] concerns the target T2, Sodium-dependent dopamine transporter (Homo sapiens, UniProt Q01959). Kind of test: Compound was tested for the inhibition of dopamine (DA) reuptake. It is filed as functional.
Test [6] concerns the target T2, Sodium-dependent dopamine transporter. Kind of test: Binding affinity towards dopamine transporter (DAT) by using [125I]RTI-55 radioligand.

T2 sequence (Q01959 whole entry): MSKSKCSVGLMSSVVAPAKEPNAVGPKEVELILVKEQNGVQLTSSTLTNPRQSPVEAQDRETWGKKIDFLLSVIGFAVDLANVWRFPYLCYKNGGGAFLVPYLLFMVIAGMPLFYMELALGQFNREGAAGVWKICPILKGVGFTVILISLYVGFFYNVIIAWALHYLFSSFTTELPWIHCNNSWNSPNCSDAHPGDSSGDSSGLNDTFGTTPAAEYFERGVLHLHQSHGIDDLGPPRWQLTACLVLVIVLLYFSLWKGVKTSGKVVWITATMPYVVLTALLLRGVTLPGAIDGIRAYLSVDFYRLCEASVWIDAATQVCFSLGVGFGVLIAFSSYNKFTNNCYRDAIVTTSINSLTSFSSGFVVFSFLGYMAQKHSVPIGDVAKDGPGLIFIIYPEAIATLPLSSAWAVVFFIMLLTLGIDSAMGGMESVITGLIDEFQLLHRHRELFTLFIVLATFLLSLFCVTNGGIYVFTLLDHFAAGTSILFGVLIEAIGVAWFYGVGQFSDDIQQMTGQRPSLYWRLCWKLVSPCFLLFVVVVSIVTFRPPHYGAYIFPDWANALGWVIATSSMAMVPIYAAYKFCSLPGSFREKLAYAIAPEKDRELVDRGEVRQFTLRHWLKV
Chain of Sodium-dependent noradrenaline transporter (P23975 whole entry): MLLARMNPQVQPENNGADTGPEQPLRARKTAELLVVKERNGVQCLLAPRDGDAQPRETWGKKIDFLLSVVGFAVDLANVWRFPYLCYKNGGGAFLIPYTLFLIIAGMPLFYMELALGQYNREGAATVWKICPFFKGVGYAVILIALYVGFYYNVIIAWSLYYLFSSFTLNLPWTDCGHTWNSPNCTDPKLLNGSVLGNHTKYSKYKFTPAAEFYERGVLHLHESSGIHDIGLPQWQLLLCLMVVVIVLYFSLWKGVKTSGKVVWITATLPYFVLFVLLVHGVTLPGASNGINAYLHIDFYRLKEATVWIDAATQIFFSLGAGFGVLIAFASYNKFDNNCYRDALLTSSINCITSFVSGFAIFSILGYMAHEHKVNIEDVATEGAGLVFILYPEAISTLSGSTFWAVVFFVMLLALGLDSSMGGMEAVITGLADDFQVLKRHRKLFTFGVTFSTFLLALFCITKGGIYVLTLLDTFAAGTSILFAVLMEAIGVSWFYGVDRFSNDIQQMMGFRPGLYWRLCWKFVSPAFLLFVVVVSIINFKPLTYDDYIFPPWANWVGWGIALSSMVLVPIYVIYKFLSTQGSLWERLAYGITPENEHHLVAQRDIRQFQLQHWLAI

Turning to `Fc1ccc(C(OCCC2CCN(Cc3cc4ccccc4[nH]3)CC2)c2ccc(F)cc2)cc1`, the affinity in test [1], expressed as Ki, was 88 nM. Further, the Ratio in test [2] turned out to be 121.

On to `Fc1ccc(C(OCCC2CCN(Cc3cc4ccccc4s3)CC2)c2ccc(F)cc2)cc1`, for which the IC50 in test [3] is 1040 nM; in test [4], 260 nM; in test [5], 11.9 nM. Also, in test [1], the inhibition constant Ki turned out to be 246 nM. The Ratio in test [2] worked out at 153.

As to `Fc1ccc(C(OCCC2CCN(Cc3ccc4ccccc4c3)CC2)c2ccc(F)cc2)cc1`, the IC50 in test [3] was found to be 277 nM; in test [4] it was 93 nM; in test [5] it was 7.2 nM. The Ki in test [1] was 229 nM. In addition, in test [2], the Ratio was found to be 323.

`Fc1ccc(C(OCCC2CCN(C/C=C/c3cccs3)CC2)c2ccc(F)cc2)cc1`: the results for the Ki in test [1] and in test [6] were 45 nM and 1.3 nM, respectively. In test [2], the Ratio is 35.

With `Fc1ccc(C(OCCC2CCN(Cc3cccc4ccccc34)CC2)c2ccc(F)cc2)cc1`, the Ki in test [1] was 370 nM; in test [6] it was 16 nM. In addition, the Ratio in test [2] stood at 23.

In test [1], `Fc1ccc(C(OCCC2CCN(Cc3cc4ccccc4o3)CC2)c2ccc(F)cc2)cc1` showed an inhibition constant Ki of 85 nM. Moreover, the Ratio in test [2] was found to be 84.

With `Fc1ccc(C(OCCC2CCN(C/C=C/c3ccccc3)CC2)c2ccc(F)cc2)cc1`, the results for the inhibitory constant (Ki) in test [1] and in test [6] were 47 nM and 0.45 nM, respectively. Besides, the Ratio in test [2] was determined as 104.

On to `Fc1ccc(C(OCCC2CCN(C/C=C/c3ccco3)CC2)c2ccc(F)cc2)cc1`, for which the inhibition constant Ki in test [1] turned out to be 41 nM; in test [6], 0.99 nM. Moreover, the Ratio in test [2] was 41.

As to `Fc1ccc(C(OCCC2CCN(CC#Cc3ccccc3)CC2)c2ccc(F)cc2)cc1`, the affinity in test [1], expressed as Ki, was 164 nM. In test [2], the Ratio is 31.

Turning to `Fc1ccc(C(OCCC2CCN(CCCc3ccccc3)CC2)c2ccc(F)cc2)cc1`, the Ki in test [1] was 68 nM; in test [6] it was 1.1 nM. In addition, in test [2], the Ratio was found to be 65.
